Results reported in patent US20080200393A1, “Method and Composition For Treating Angiogenesis and For Preventing Cancer Progression and Metastasis Comprising a Prostate Secretory Protein (Psp94) Family Member” (Ambrillia Biopharma Inc., priority 2004, published 2008).
Where no end group is shown, it is not given here.

How the values were obtained:
ERK [1] = test: Intrinsic effect on ERK phosphorylation (Western blot); assay type: cell-based
Protocol: The induction of the MAPK pathway by the PCK3145 derivative is further confirmed by the rapid and transient induction of ERK phosphorylation between 5-10 minutes (FIG. 8B) and is shown to be dose-dependent (FIG. 8C). Finally, the effects of the PCK3145 derivative were also compared to those of a scrambled peptide.

VEGFR-2 = target: T1, VEGFR-2 (Homo sapiens, UniProt P35968); test: VEGF-induced VEGFR-2 phosphorylation in HUVEC (immunoprecipitation, Western blot); assay type: cell-based
T1 construct: host or cells: HUVEC
Protocol: Immunoprecipitation and immunoblotting procedures. After treatment, cells were washed once with phosphate-buffered saline (PBS) containing 1 mM sodium orthovanadate and were incubated in the same medium for 1 h at 4° C. The cells were solubilized on ice in lysis buffer (150 mM NaCl, 10 mM Tris-HCl, pH 7.4, 1 mM EDTA, 1 mM EGTA, 0.5% Nonidet P-40, 1% Triton X-100) containing 1 mM sodium orthovanadate. The cells were then scraped from the culture dishes and the resulting lysates were clarified by centrifugation at 10,000 g for 10 min; Protein concentrations were determined using the micro bicinchoninic acid method (Pierce). For immunoprecipitation studies, lysates were clarified by a 1 h incubation at 4° C. with a mixture of Protein A/Protein G Sepharose beads. After removal of the Sepharose beads by low-speed centrifugation, identical amounts of protein (200 μg) from each sample were transferred to fresh tubes and incubated in lysis buffer overnight at 4° C. in the presence of 2 μg/ml of specific antibodies. Immunocomplexes were collected by incubating the mixture with 25 μl (50% suspension) of Protein A- (rabbit primary antibody) or Protein G- (mouse primary antibody) Sepharose beads, for 2 h. Nonspecifically-bound material was removed by washing the beads three times in 1 ml of lysis buffer containing 1 mM sodium orthovanadate, and bound material was solubilized in 25 μl of two-fold concentrated Laemmli sample buffer (125 mM Tris-HCl (pH 6.8), 20% glycerol, 4% SDS, 10% β-mercaptoethanol, and 0.00125% bromphenol blue), boiled 5 min, and resolved by SDS-PAGE. […] The immunoreactive bands were quantified by scanning densitometry (Molecular Dynamics).
The multifunctionality of VEGF at the cellular level results from its ability to initiate a diverse, complex and integrated network of signaling pathways via its major receptor, VEGFR-2. […] After each treatment, equal amounts of protein were immunoprecipitated with anti-VEGFR-2 polyclonal antibodies and analysed by Western blotting.

MT1-MMP = MT1-MMP expression in U-87 cells; assay type: cell-based; conditions: 300 ug/ml
HUVEC = test: Matrigel endothelial cell tube formation assay; assay type: cell-based, Human; conditions: HUVEC on Matrigel, 0-300 μg/ml, serum-free media, 24 hours
Protocol: Matrigel endothelial cell tube formation assay Matrigel (12.5 mg/ml) was thawed at 4° C., and 50 μl were quickly added to each well of a 96-well plate and allowed to solidify for 10 min at 37° C. […] The formation of capillary-like structures was examined microscopically and pictures (50×) were taken using a Retiga 1300 camera and a Zeiss Axiovert S100 microscope. The extent to which capillary-like structures formed in the gel was quantified by analysis of digitized images to determine the thread length of the capillary-like network, using a commercially available image analysis program (Northern Eclipse).
Matrigel endothelial cell tube formation assay. […] The extent to which capillary-like structures formed in the gel was quantified by analysis of digitized images using a commercially available image analysis software (Northern Eclipse) (25).
This three dimensional ECM model assay provides physiologically relevant environment for studies of cell morphology, biochemical function, and gene expression in endothelial cells (EC) that can be modulated for instance by tumor growth factors or hypoxic culture conditions. […] The extent of capillary-like structures formation (density and size of structures) can be quantified by analysis of digitized images to determine the relative size and area covered by the tube-like network, using an image analysis software (Un-Scan-it, Empix Imaging). […]

U-87 cells = test: U-87 cell adhesion to hyaluronic acid; assay type: cell-based; conditions: U-87, 300 ug/ml, 48 hrs; adhesion 3 hours; three independent experiments
Protocol: ECM recognition is a crucial event in the cell adhesion processes involved in tumor progression. This process is mediated and regulated through specialized cell surface receptors or integrins. […] U-87 cells were treated with the PCK3145 derivative (300 ug/ml, 48 hrs), trypsinised, counted, and seeded on wells coated with 10 ug/ml BSA (bovine serum albumin) or HA. Cells were allowed to adhere for 3 hours. Three independent experiments were performed. […] One such potential intracellular protein is the GTPase RhoA, which is likely to mediate mechanisms regulating cytoskeletal morphogenesis.

ERK [2] = test: VEGF-induced ERK phosphorylation in BAEC; assay type: cell-based; conditions: BAEC (not shown)

T1 sequence (P35968 20-1356): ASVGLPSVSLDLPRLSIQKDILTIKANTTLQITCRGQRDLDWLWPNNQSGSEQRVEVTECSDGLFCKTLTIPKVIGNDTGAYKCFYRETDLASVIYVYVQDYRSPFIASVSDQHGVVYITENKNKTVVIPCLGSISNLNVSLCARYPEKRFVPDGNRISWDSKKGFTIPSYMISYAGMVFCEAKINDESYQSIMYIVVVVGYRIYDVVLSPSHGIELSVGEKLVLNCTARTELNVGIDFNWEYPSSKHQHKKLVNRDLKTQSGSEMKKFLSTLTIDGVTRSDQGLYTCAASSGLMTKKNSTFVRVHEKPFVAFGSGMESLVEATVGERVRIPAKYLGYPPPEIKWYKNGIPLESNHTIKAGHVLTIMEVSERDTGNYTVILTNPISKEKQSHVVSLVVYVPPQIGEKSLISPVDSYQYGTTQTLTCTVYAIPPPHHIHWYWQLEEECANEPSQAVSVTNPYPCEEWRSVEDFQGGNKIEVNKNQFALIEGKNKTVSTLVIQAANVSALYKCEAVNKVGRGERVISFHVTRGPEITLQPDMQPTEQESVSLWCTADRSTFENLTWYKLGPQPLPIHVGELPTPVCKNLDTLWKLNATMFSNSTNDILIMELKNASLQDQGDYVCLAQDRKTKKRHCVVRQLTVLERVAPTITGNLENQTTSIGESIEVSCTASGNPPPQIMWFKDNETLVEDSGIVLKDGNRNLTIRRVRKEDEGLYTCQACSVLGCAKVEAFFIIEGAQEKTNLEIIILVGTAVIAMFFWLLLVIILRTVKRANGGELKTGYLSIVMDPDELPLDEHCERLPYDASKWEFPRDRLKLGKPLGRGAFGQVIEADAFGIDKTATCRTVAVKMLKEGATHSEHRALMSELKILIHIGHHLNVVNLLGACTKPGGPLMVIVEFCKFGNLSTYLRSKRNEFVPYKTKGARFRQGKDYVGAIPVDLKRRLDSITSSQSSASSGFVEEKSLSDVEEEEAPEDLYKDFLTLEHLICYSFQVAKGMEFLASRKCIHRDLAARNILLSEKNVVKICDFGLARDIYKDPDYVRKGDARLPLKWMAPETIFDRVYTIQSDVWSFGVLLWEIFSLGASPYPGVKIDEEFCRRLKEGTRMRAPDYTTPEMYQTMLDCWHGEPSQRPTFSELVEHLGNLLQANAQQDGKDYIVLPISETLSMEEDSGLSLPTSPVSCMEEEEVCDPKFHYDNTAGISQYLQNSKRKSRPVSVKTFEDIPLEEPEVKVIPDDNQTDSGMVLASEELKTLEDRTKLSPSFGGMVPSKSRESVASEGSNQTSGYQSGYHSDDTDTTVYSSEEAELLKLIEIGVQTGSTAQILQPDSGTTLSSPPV

Sequence: EWQTDNCETCTCYET (cysteine pairing not given here) [PCK3145 derivative, PCK3145 derivative with acetylaminomethyl groups on the three cysteines]
- induction of ERK phosphorylation, dose dependence (ERK [1]; dose-response): dose-dependent
- time of rapid and transient induction of ERK phosphorylation (ERK [1]; time-course): 5 to 10 min
- phosphorylation of VEGFR-2 induced by VEGF, dose dependence (VEGFR-2): dose-dependent
- phosphorylation of VEGFR-2 induced by VEGF (VEGFR-2; 300 μg/ml, 24 h): inhibited
- MT1-MMP expression (MT1-MMP): slight increase
- capillary-like structure formation (tubulogenesis) (HUVEC): negatively affects tubulogenesis
- diminution of cell adhesion on HA (U-87 cells): 45-76%
- ERK phosphorylation induced by VEGF (ERK [2]): inhibitory effect was confirmed
